Laboratory results taken from patent US8207163B2, “Compositions, synthesis, and methods of using piperazine based antipsychotic agents” (Reviva Pharmaceuticals, Inc., priority 2008, dated 2012).
Where a name gives a salt, the structure may show the parent alone.

Tests used:
[1] = target: T1, serotonin 5-HT1A receptor (human recombinant expressed in HEK-293 cells) (Homo sapiens, UniProt P08908); experiment: Serotonin, 5HT1A (human recombinant) radioligand binding assay, [3H]-8-OH-DPAT; settings: human recombinant in HEK-293 cells; for IC50: six concentrations 0.5-1000 nM
T1 construct: expressed in transfected cells; host or cells: HEK-293 cells (from the result head)
T1 sequence (P08908 1-422): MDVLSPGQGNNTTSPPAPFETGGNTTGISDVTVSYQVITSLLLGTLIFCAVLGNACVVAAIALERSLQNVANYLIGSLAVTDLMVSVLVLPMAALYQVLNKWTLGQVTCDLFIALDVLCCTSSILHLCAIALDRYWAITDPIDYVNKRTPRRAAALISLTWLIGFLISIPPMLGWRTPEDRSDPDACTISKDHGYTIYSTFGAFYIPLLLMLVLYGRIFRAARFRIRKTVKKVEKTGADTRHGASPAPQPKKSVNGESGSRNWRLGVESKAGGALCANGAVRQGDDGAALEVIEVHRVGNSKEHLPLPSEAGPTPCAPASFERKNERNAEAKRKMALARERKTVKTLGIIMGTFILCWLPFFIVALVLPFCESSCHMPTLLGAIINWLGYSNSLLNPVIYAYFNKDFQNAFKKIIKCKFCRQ
Experimental: (§1) The reactions were carried out in 50 mM TRIS-Hal (pH 7.4) containing 10 mM MgSO4, 0.5 mM EDTA and 0.1% Ascorbic acid at room temperature for 1 hour. The reaction was terminated by rapid vacuum filtration onto glass fiber filters. Radioactivity trapped onto the filters was determined and compared to control values in order to ascertain any interactions of test compounds with the cloned serotonin—5HT1A binding site (Literature Reference: Hoyer, D. et al. Eur. Journal Pharmacol. 1985, 118, 13-23; Schoeffier, P. and Hoyer, D. Naunyn-Schmiedeberg's Arch. Pharmac. 1989, 340, 135-138) • Serotonin, 5HT2A (human) binding assay: • Materials and Methods: • Receptor Source: Human Cortex • Radioligand: [^3H]-Ketanserin (60-90 Ci/mmol) • Control Compound: Ketanserin • Incubation Conditions:
(§2) The radioligand binding assays for dopamine-D2S, serotonin-5HT1A and serotonin-5HT2A were carried out at six different concentrations and the test concentrations were 0.5 nM, 1 nM, 10 nm, 100 nM, 300 nM and 1000 nM.

[2] = target: T2, dopamine D2S receptor (human recombinant expressed in CHO cells) (Homo sapiens, UniProt P14416); experiment: Dopamine, D2S (human recombinant) radioligand binding assay, [3H]Spiperone; settings: for IC50: six concentrations 0.5-1000 nM
T2 construct: expressed in transfected cells; host or cells: CHO cells
Experimental: The piperazine derivatives comprising Formulae (I)-(X) described in this invention were tested in the in vitro pharmacological assays to evaluate their activities for dopamine, D2S, serotonin, 5-HT1A and serotonin, 5-HT2A receptors. The in vitro assay protocols and literature references are described herein. • Dopamine, D2S (human recombinant) binding assay: • Materials and Methods: [table] The reactions were carried out in 50 mM TRIS-Hal (pH 7.4) containing 120 mM NaCl, 5 mM KCl, 5 mM MgCl2, 1 mM EDTA for 60 minutes at 25 C. The reaction was terminated by rapid vacuum filtration onto glass fiber filters. Radioactivity trapped onto the filters was determined and compared to control values in order to ascertain any interactions of test compounds with the cloned dopamine—D2 short binding site (Literature Reference: Jarvis, K. R. et al. Journal of Receptor Research 1993, 13(1-4), 573-590; Gundlach, A. L. et al. Life Sciences 1984, 35, 1981-1988.) • Serotonin, 5HT1A (human recombinant) binding assay: • Materials and Methods: The radioligand binding assays for dopamine-D2S, serotonin-5HT1A and serotonin-5HT2A were carried out at six different concentrations and the test concentrations were 0.5 nM, 1 nM, 10 nm, 100 nM, 300 nM and 1000 nM.

[3] = target: T3, serotonin 5-HT2A receptor (Human Cortex) (Homo sapiens, UniProt P28223); experiment: Serotonin, 5HT2A (human) radioligand binding assay, [3H]-Ketanserin; settings: for IC50: six concentrations 0.5-1000 nM
T3 construct: Receptor Source: Human Cortex; from tissue; host or cells: human cortex
Experimental: as §1
The reactions were carried out in 50 mM TRIS-Hal (pH 7.6) at room temperature for 90 minutes. The reaction was terminated by rapid vacuum filtration onto glass fiber filters. Radioactivity trapped onto the filters was determined and compared to control values in order to ascertain any interactions of test compounds with the serotonin—5HT2A binding site (Literature Reference: Leysen, J. E. et al. Mol. Pharmacol. 1982, 21, 301-314; Martin, G. R. and Humphrey, P. P. A. Neuropharmacol. 1994, 33(3/4), 261-273.)
as §2

T2 sequence (P14416 1-414 isoform P14416-2): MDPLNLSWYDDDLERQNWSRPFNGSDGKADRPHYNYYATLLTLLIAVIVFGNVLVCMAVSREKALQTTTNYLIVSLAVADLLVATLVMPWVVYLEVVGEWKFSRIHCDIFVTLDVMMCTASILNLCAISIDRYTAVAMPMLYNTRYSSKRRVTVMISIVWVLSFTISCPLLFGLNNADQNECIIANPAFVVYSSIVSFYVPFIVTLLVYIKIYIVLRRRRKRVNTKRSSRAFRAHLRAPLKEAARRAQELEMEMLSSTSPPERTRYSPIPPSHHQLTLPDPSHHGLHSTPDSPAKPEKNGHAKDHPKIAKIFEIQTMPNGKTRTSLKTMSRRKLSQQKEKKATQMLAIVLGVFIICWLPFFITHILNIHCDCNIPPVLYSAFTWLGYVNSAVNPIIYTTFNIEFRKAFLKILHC
T3 sequence (P28223 whole entry): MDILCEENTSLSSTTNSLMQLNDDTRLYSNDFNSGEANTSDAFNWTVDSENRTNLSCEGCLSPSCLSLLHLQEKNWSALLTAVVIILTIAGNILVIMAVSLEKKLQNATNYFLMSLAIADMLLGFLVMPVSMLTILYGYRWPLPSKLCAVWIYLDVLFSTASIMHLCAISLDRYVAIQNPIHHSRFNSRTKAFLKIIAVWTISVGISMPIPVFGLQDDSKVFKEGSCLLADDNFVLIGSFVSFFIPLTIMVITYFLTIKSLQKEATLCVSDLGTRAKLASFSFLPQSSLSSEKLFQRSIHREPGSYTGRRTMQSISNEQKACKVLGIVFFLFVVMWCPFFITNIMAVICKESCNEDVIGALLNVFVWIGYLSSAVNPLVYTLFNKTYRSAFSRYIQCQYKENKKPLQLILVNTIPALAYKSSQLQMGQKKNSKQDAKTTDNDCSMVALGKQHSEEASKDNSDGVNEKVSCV

Ki [1] | IC50 [1] | Ki [2] | IC50 [2] | Ki [3] | IC50 [3] | Structure (SMILES)
11.4 nM | 18.5 nM | 2.89 nM | 7.89 nM | 57.4 nM | 110 nM | O=C(CCCN1CCN(c2cccc(Cl)c2Cl)CC1)Nc1ccc2c(c1)NC(=O)CO2 [Compound 5b, 4-(4-(2,3-Dichlorophenyl)piperazin-1-yl)-N-(3-oxo-3,4-dihydro-2H-benzo[b][1,4]oxazin-6-yl)butanamide hydrochloride]
10.2 nM | 16.7 nM | 6.77 nM | 19.2 nM | 282 nM | 572 nM | CCOC(=O)CCCOc1ccccc1N1CCN(CCCCOc2ccc3c(c2)NC(=O)CO3)CC1 [Compound 18a, Ethyl 4-(2-(4-(4-(3-oxo-3,4-dihydro-2H-benzo[b][1,4]oxazin-6-yloxy)butyl)piperazin-1-yl)phenoxy)butanoate hydrochloride]
3.3 nM | 5.44 nM | 50.2 nM | 147 nM | 340 nM | 622 nM | CCOC(=O)C(C)(C)CCOc1ccccc1N1CCN(CCCCOc2ccc3c(c2)NC(=O)CO3)CC1 [Compound 18b, Ethyl 2,2-dimethyl-4-(2-(4-(4-(3-oxo-3,4-dihydro-2H-benzo[b][1,4]oxazin-6-yloxy)butyl)piperazin-1-yl)phenoxy)butanoate hydrochloride]
2.67 nM | 4.41 nM | 2.09 nM | 5.93 nM | 185 nM | 376 nM | CCOC(=O)C(C)(C)Oc1ccccc1N1CCN(CCCCOc2ccc3c(c2)NC(=O)CO3)CC1 [Compound 18c, Ethyl 2-methyl-2-(2-(4-(4-(3-oxo-3,4-dihydro-2H-benzo[b][1,4]oxazin-6-yloxy)butyl)piperazin-1-yl)phenoxy)propanoate hydrochloride]

Structure (SMILES) | Ki [1] | IC50 [1] | Ki [2] | IC50 [2] | Ki [3] | IC50 [3]
CCOC(=O)CN1C(=O)COc2ccc(OCCCCN3CCN(c4cccc(Cl)c4Cl)CC3)cc21 [Compound 28c, Ethyl 2-(6-(4-(4-(2,3-dichlorophenyl)piperazin-1-yl)butoxy)-3-oxo-2H-benzo[b][1,4]oxazin-4(3H)-yl)acetate hydrochloride] | 2.96 nM | 4.45 nM | 15.5 nM | 49.4 nM | 106 nM | 237 nM
